Assay results: patent US10857155B2, “Compounds targeting proteins, compositions, methods, and uses thereof” (BioTheryX, Inc., priority 2017, dated 2020)

Key:
Type in all cases: cell-based
[1] = system: TNF-α; experiment: TNF-alpha in LPS-induced PBMCs / CD14+ monocytes, Meso Scale assay
Experimental: (§1) FIG. 4 represents the activity against TNF-alpha in CD14, monocytes, plated in 96 well plates and pretreated with Compounds 1, 2, or 3, or pomalidomide, for 1 h and then induced with 100 ng/mL LPS for 18-24 h. Cytokines were measured according to MesoScale protocol. The negative control wells were treated with DMSO. Cells were treated with compound (at the indicated concentrations) or 10 μM pomalidomide. Compound activity was measured as a percentage of LPS-induced activity.
(§2) Either frozen primary blood mononuclear cells (PBMCs) or frozen CD14+ mobilized peripheral blood monocytes were purchased from AllCells (PB003F, Normal Peripheral Blood MNC (Alameda, Calif.)). Cells were quick thawed, washed 1-time with RPMI-1640 (10% FBS/1% Pen-Strep) and plated in 96 well plates at 200,000 cells per well. Cells were pretreated with DMSO only, pomalidomide or the indicated compounds for 1 h and then induced with 100 ng/mL lipopolysaccharide (LPS) for 18-24 h. The supernatant was analyzed for IL-1 beta, IL-6, and TNF-alpha, using Meso Scale assay according to manufacturer's protocol. The negative control wells were treated with DMSO.
(§3) Compound activity is measured as fold difference from the DMSO control. Compounds 1, 2, and 3 each reduced expression of IL-1-b in LPS-stimulated PBMCs by over 80% at 1 uM, relative to a just under 80% reduction with pomalidomide at 10 μM (FIG. 2).

[2] = system: IL-6; experiment: IL-6 in LPS-induced PBMCs / CD14+ monocytes, Meso Scale assay
Experimental: as §1, with “FIG. 3” for “FIG. 4”, “against IL-6” for “against TNF-alpha”, “protocol. Negative” for “protocol. The negative”
as §2, §3

[3] = system: IL-2; experiment: IL-2 in PBMCs on anti-human CD3 (OKT3) coated plates, Mesoscale analysis; conditions: PBMC, 24 h, relative to DMSO control, read-out: Fold Change IL-2
Experimental: For the IL-2 analysis, 96 well plates were precoated with 1 μg/mL anti-human CD3 antibody (OKT3, eBioscience Inc., San Diego, Calif.). After washing with PBS, compounds were added (50 μL/well) followed by PBMCs diluted at 3-4 million cells/mL (150 μL/well). Plates were incubated for 24 h and the supernatants collected for Mesoscale IL-2 analysis.
as §3

[4] = target: T1, GSPT1 (Homo sapiens, UniProt P15170); experiment: Western blot analysis of GSPT1 protein levels in Jurkat cells; conditions: DMSO = 100.00; for GSPT1 protein level (% of DMSO control) at 0.1 µM: 100 nM compound; for GSPT1 protein level (% of DMSO control) at 1 µM: 1 uM compound
T1 construct: Whole cell extract was prepared with RIPA buffer according to manufacturer's protocol; endogenous in cells; host or cells: Jurkat cells
Experimental: FIG. 1 represents the activity against CK1α, ikaros, and GPST1 in Jurkat cells, plated in 96 well plates. Cells were pretreated with compounds for 4 h and then lysed and protein levels measure via Western blots. The negative control wells were treated with DMSO. Cells were treated with the indicated compound at the indicated concentration. Compound activity is measured as a decrease in GSPT1 protein levels.
Western Blot Protocol: Cell lines were grown in RPMI 1640 supplemented with streptomycin, penicillin and 10% fetal bovine serum.
Jurkat cells were cultured at approximately 10^6 cells per mL, DMSO or the indicated compound was added to the cells and allowed to incubate for 6-8 h. Whole cell extract was prepared with RIPA buffer according to manufacturer's protocol (Pierce (Dallas, Tex.)). Briefly, ˜2×10^6 cells were washed once in PBS, the cell pellet was resuspended in RIPA buffer and allowed to incubate for 15 min on ice. Cell debris was removed by centrifugation and the cleared whole cell lysate was transferred to a new tube for further analysis.
For western blot analysis, whole cell extracts were separated on 4-12% SDS-polyacrylamide gels, transferred to nitrocellulose and probed with the indicated primary antibodies. Membranes were subsequently washed and probed with the appropriate horseradish peroxidase (HRP)-conjugated secondary antibody. Membranes were subsequently washed and probed with the appropriate IRDye secondary antibodies (LI-COR). The signal was detected using the Odyssey Imaging System (LI-COR).

[5] = system: Molm-13 cells; experiment: Cell viability assay (CellTiter-Glo), Molm-13 cells; conditions: for viability at 10 µM: MOLM-13, 10 μM
Experimental: FIG. 5 represents antiproliferative activity in Molm-13 cells. The cells were incubated with Compound 1, 2, or 3 (at the indicated concentration), DMSO, or pomalidomide. Compound activity was measured based on the signal from remaining viable cells.
(§4) Molm-13 cells were cultivated in RPMI-1640 (10% FBS/1% pen-strep) and were plated in white walled 96-well plates at 20,000 cells/well. H1048 cells were cultured in DMEM:F12 media supplemented with 5% fetal bovine serum, insulin, transferrin, sodium selenite, hydrocortisone, estradiol, penicillin and streptomycin, and were plated in white walled 96-well plates at 20,000 cells/well.
(§5) Cells were treated with compound at the indicated concentration or DMSO (control) and the cultures were incubated for 3 days at 37° C. and 5% CO2. Following the incubation period, 100 μL of CellTiterGlow (CTG) reagent (CellTiter-Glo® Luminescent Cell Viability Assay, Promega (Madison, Wis.)) was added to each well. Following a 10 min incubation with shaking, luminescence was measured using a Victor Wallac Luminometer.

[6] = system: IL-1β; experiment: IL-1 beta in LPS-induced PBMCs / CD14+ monocytes, Meso Scale assay
Experimental: FIG. 2 represents the activity against IL-1-beta in CD14 monocytes, plated in 96 well plates and pretreated with Compounds 1, 2, or 3, or pomalidomide, for 1 h and then induced with 100 ng/mL LPS for 18-24 h. Cytokines were measured according to MesoScale protocol. Negative control wells were treated with DMSO. Compound activity was measured as a percentage of LPS-induced activity.
as §2, §3

[7] = system: H1048 cells; experiment: Cell viability assay (CellTiter-Glo), H1048 cells; conditions: Homo sapiens, NCI-H1048, 72 h, 3 days; for viability at 1 µM: H1048, 1 μM; for viability at 10 µM: H1048, 10 μM
Experimental: as §4, §5

T1 sequence (P15170 whole entry): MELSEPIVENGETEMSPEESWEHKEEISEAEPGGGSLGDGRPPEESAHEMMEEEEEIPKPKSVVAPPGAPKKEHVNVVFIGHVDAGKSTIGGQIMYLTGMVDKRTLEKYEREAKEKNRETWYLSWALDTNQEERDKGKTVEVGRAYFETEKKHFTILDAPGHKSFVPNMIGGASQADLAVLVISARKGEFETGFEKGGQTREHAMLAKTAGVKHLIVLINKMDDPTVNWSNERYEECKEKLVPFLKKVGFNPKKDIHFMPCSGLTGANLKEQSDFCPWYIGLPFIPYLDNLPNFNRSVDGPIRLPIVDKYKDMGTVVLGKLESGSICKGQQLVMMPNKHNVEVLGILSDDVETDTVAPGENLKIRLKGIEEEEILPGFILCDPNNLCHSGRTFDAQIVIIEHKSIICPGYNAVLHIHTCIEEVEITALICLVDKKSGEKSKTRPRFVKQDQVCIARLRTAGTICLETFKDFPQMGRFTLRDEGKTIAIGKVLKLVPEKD

| SMILES | inhibition at 1 µM [1] [%] | inhibition at 1 µM [2] [%] | fold induction at 1 µM [3] | GSPT1 protein level (% of DMSO control) at 0.1 µM [4] [%] | GSPT1 protein level (% of DMSO control) at 1 µM [4] [%] | viability at 10 µM ([5]; Homo sapiens, 72 h, 3 days) [%] | inhibition at 1 µM [6] [%] | viability at 1 µM [7] [%] | viability at 10 µM [7] [%] | viability at 0.6 µM ([5]; Homo sapiens, 72 h, MOLM-13, 0.6 μM, 3 days) [%] | inhibition at 0.1 µM [1] [%] | inhibition at 0.1 µM [2] [%] | fold induction at 0.1 µM [3] | inhibition at 0.1 µM [6] [%] | viability at 1 µM ([5]; Homo sapiens, 72 h, MOLM-13, 1 μM, 3 days) [%] | viability at 0.5 µM ([5]; Homo sapiens, 72 h, MOLM-13, 0.5 μM, 3 days) [%] | reduction of expression of TNF-α ([1]; LPS-stimulated PBMCs, 10 μM (FIG. 4)) [%] | reduction of IL-6 levels ([2]; LPS-stimulated PBMCs, 10 μM (FIG. 3)) | effect on cell viability ([5]; Molm-13 cells, 10 μM (FIG. 5)) | reduction of expression of IL-1-b ([6]; LPS-stimulated PBMCs, 10 μM (FIG. 2)) |
| --- | --- | --- | --- | --- | --- | --- | --- | --- | --- | --- | --- | --- | --- | --- | --- | --- | --- | --- | --- | --- |
| Cc1ccc(CC(=O)NCc2ccc3c(c2)CN([C@H]2CCCC(=O)NC2=O)C3=O)cc1CN1CCOCC1 [Compound 11, (S)—N-((2-(2,7-dioxoazepan-3-yl)-1-oxoisoindolin-5-yl)methyl)-2-(4-methyl-3-(morpholinomethyl)phenyl)acetamide] | 12 | 5 | 0.6 | 137 | 56 | 99 | 0 | 70.8 | 11.6 | – | – | – | – | – | – | – | – | – | – | – |
| O=C1CCC[C@H](N2Cc3cc(CNC(=O)Nc4ccc(C(F)(F)F)c(Cl)c4)ccc3C2=O)C(=O)N1 [Compound 12, (S)-1-(3-chloro-4-(trifluoromethyl)phenyl)-3-((2-(2,7-dioxoazepan-3-yl)-1-oxoisoindolin-5-yl)methyl)urea] | 59 | 90 | 1.5 | – | 18.6 | 11 | 75 | – | – | – | – | – | – | – | – | – | – | – | – | – |
| Cc1c(Cl)cccc1NC(=O)NCc1ccc2c(c1)CN([C@H]1CCCC(=O)NC1=O)C2=O [Compound 5, (S)-1-(3-chloro-2-methylphenyl)-3-((2-(2,7-dioxoazepan-3-yl)-1-oxoisoindolin-5-yl)methyl)urea] | 92 | 99 | 1.3 | 80.2 | 15.7 | – | 90 | 27.3 | 2.36 | 50 | – | – | – | – | – | – | – | – | – | – |
| O=C1CCC[C@H](N2Cc3cc(CNC(=O)C(F)(F)c4ccc(F)cc4)ccc3C2=O)C(=O)N1 [Compound 25, (S)—N-((2-(2,7-dioxoazepan-3-yl)-1-oxoisoindolin-5-yl)methyl)-2,2-difluoro-2-(4-fluorophenyl)acetamide] | – | – | – | 98.1 | 63.5 | 96 | – | 88.1 | 26.6 | – | 36 | 12 | 1.4 | 38 | – | – | – | – | – | – |
| Cc1ccc(CCNC(=O)NCc2ccc3c(c2)CN([C@H]2CCCC(=O)NC2=O)C3=O)cc1Cl [Compound 19, (S)-1-(3-chloro-4-methylphenethyl)-3-((2-(2,7-dioxoazepan-3-v)-1-oxoisoindolin-5-yl)methyl)urea] | – | – | – | – | 26.8 | – | – | 8.26 | 3.09 | – | 33 | 17 | 1.2 | 37 | 79 | – | – | – | – | – |
| Cc1ccc(CNC(=O)NCc2ccc3c(c2)CN([C@H]2CCCC(=O)NC2=O)C3=O)cc1Cl [Compound 18, (S)-1-(3-chloro-4-methylbenzyl)-3-((2-(2,7-dioxoazepan-3-yl)-1-oxoisoindolin-5-yl)methyl)urea] | – | – | – | 69.7 | 20.2 | – | – | 14.2 | 4.28 | – | 48 | 41 | 1.5 | 53 | – | 68 | – | – | – | – |
| Cc1ccc(N(C)C(=O)NCc2ccc3c(c2)CN([C@H]2CCCC(=O)NC2=O)C3=O)cc1Cl [Compound 21, (S)-1-(3-chloro-4-methylphenyl)-3-((2-(2,7-dioxoazepan-3-yl)-1-oxoisoindolin-5-yl)methyl)-1-methylurea] | – | – | – | 126 | 134 | 25 | – | 95.5 | 45.3 | – | 20 | 18 | 0.9 | 27 | – | – | – | – | – | – |
| Cc1ccc(CC(=O)NCc2ccc3c(c2)CN([C@H]2CCCC(=O)NC2=O)C3=O)cc1 [Compound 9, (S)—N-((2-(2,7-dioxoazepan-3-yl)-1-oxoisoindolin-5-yl)methyl)-2-(p-tolyl)acetamide] | 64 | 63 | 1.8 | 128 | 32.1 | 99 | 61 | 57.1 | 7.27 | – | – | – | – | – | – | – | – | – | – | – |
| Cc1ccc(NC(=O)NCc2ccc3c(c2)C(=O)N([C@H]2CCCC(=O)NC2=O)C3=O)cc1Cl [Compound 27, (S)-1-(3-chloro-4-methylphenyl)-3-((2-(2,7-dioxoazepan-3-yl)-1,3-dioxoisoindolin-5-yl)methyl)urea] | – | – | – | 51.4 | 23.8 | 89 | – | 101 | 28.2 | – | 19 | 0 | 1.1 | 9 | – | – | – | – | – | – |
| CCCNC(=O)NCc1ccc2c(c1)CN([C@H]1CCCC(=O)NC1=O)C2=O [Compound 4, (S)-1-((2-(2,7-dioxoazepan-3-yl)-1-oxoisoindolin-5-yl)methyl)-3-propylurea] | 44 | 33 | 1.5 | 214 | 116 | – | 39 | 103 | 97.5 | – | – | – | – | – | – | – | – | – | – | – |
| Nc1cccc2c1C(=O)N(C1CCC(=O)NC1=O)C2=O (centres unmarked) [pomalidomide, reference compound] | – | – | – | – | – | – | – | – | – | – | – | – | – | – | – | – | ~30 | under 60% | no effect on cellular viability | under 80% |
